Converted amounts (≈) assume the structure as drawn. Read-outs that look alike come from different tables or passages of the source.
Columns and labels:
[1] = Solubility of drug in EGCG or tannic acid solutions (dried down, PBS or water added, 0.22 micron filtered, HPLC or absorbance)
[2] = 24 h

CC(=O)O[C@@]12CO[C@@H]1C[C@H](O)[C@@]1(C)C(=O)[C@H](O)C3=C(C)[C@@H](OC(=O)[C@H](O)[C@@H](NC(=O)OC(C)(C)C)c4ccccc4)C[C@@](O)([C@@H](OC(=O)c4ccccc4)[C@H]21)C3(C)C [docetaxel]
solubility ([1]; EGCG solution (200 mg/ml) in PBS, aqueous with cosolvent or surfactant or cyclodextrin, thermodynamic from solid, drug concentration solubilised at maximum EGCG concentration, EGCG 200 mg per ml, PBS): ~1500 µg/mL (≈ 1860 µM)
effect of temperature on solubility ([1]; EGCG solutions): no effect of temperature
stability of EGCG solutions of the drug ([1]; EGCG solutions, 24 hours): stable over 24 hours
stability of tannic acid solutions of the drug ([1]; tannic acid concentrations above 150 mg/ml, 24 hrs): not stable over 24 hrs
effect of temperature on solubility ([1]; tannic acid solutions, 37° C. or 50° C. compared to 23° C.): no effect of temperature
solubility ([1]; water, free solubility in water, no EGCG or tannic acid): 5 to 7 µg/mL (≈ 6.19 to 8.66 µM)

CC(=O)O[C@H]1C(=O)[C@@]2(C)[C@H]([C@H](OC(=O)c3ccccc3)[C@]3(O)C[C@H](OC(=O)[C@H](O)[C@@H](NC(=O)c4ccccc4)c4ccccc4)C(C)=C1C3(C)C)[C@]1(OC(C)=O)CO[C@@H]1C[C@@H]2O [paclitaxel]
stability of EGCG solutions of the drug [2]: not stable over 24 hours
stability of tannic acid solutions of the drug [2]: stable for 24 hours
